Data reported in article PMC11769294, “(E)-1-(3-(3-Hydroxy-4-Methoxyphenyl)-1-(3,4,5-Trimethoxyphenyl)allyl)-1H-1,2,4-Triazole and Related Compounds: Their Synthesis and Biological Evaluation as Novel Antimitotic Agents Targeting Breast Cancer” (Pharmaceuticals, 2025).

Experiments:
[1] = tested on: COLO 205 (Colon Cancer); experiment: NCI60 screen (SRB); format: cell-based, human; details: 48 h; for growth percent: one dose 10 µM
[2] = tested on: NCI-H322M (Non-Small Cell Lung Cancer); experiment: NCI60 screen (SRB); format: cell-based, human; details: 48 h; for growth percent: one dose 10 µM
[3] = tested on: NCI-H460 (Non-Small Cell Lung Cancer); experiment: NCI60 screen (SRB); format: cell-based, human; details: for growth percent: one dose 10 µM; for GI50: five-dose
[4] = Cytotoxicity in MCF-10A cells (alamarBlue); format: cell-based, human; details: human, MCF-10A non-tumorigenic mammary epithelial cells
Method: (§1) Figure 9 Effect of compounds 22a (A) and 22b (B) on the cell viability of non-tumorigenic MCF-10A human mammary epithelial cells at 24, 48, and 72 h. Cells were treated with the compounds 22a and 22b at concentrations of 10 μM, 1 μM, 0.5 μM, and 0.4 μM for 24, 48, or 72 h. […] Cell viability was expressed as a percentage of vehicle control (ethanol 1% (v/v)) and was determined by an alamarBlue assay (average ± SEM of three independent experiments). Two-way ANOVA (Bonferroni post-test) was used to test for statistical significance (*, p < 0.05; **, p < 0.01; ***, p < 0.001).
(§2) HL-60 cells were suspension cells and the seeding density for the viability assay was 25,000 cells/mL. MCF-7 cells (adherent) were cultured in Minimum Essential Media (MEM) with GlutaMAX™-I, supplemented with 1% (v/v) non-essential amino acids, 10% (v/v) fetal bovine serum (FBS), purchased from BD Biosciences (Edmund Halley Road, Oxford, UK), and 1% (v/v) penicillin/streptomycin 5000 U/mL. The MCF-7 cells used in the screening of the compounds during these experiments were mycoplasma-free. The seeding density of MCF-7 in the viability assay was 25,000 cells/mL and 50,000 cells/mL in the FACS assay. Normal breast cells (MCF-10A) (adherent) were cultured in Dulbecco’s Modified Eagle Medium: Nutrient Mixture F-12 (DMEM/F12; Gibco) supplemented with 5% horse serum (Invitrogen, Waltham, MA, USA), 20 ng/mL epidermal growth factor (Merck Millipore, Burlington, MA, USA), 0.5 μg/mL hydrocortisone (Sigma, Kanagawa, Japan), 100 ng/mL cholera toxin (Sigma), 10 μg/mL insulin (Sigma), and penicillin/streptomycin 5000 U/mL (1%) (Gibco, Waltham, MA, USA). […] MDA-MB-231 cells were cultured in Dulbecco’s Modified Eagle Medium, which was supplemented with 10% (v/v) fetal bovine serum (FBS) and 1% (v/v) penicillin/streptomycin 5000 U/mL. When not in use, all cells were kept in liquid nitrogen and frozen in a freezing media made of 90% FBS and 10% DMSO. All cells were grown in an atmosphere of 5% CO2/95% air in T75 culture flasks. The media was changed every 2–3 days and media was always prewarmed to 37 °C. All were sub-cultured every 3–4 days by trypsinization using TrypLE™ Express enzyme when confluence was reached to allow growth, prevent excessive cell death, and minimize the risk of infections derived by over-confluence. For the cell viability assay, the number of cells per milliliter was 25,000 cells/mL while the FACS assay utilized 50,000 cells/mL. Cells were maintained at 37 °C in 5% CO2 in a humidified incubator.
(§3) The biochemical assays were performed in triplicate and on at least three independent occasions to facilitate the determination of mean values. For the viability assay, cells were grown until 80% confluent. Adherent cells such as MCF-7, MDA-MB-231, and MCF-10A were trypsinized to detach them from the flask, counted as previously described, and seeded in 96 well plates with a seeding density of 25,000 cells /mL (200 µL of suspension in each well so that the final number of cells per well was 5000) and 1 × 10^4 cells/well seeding density for suspension HL-60 cells. Adherent cells were incubated for 24 h after being seeded in the 96 well plate and treated on the following day, while suspension cells were treated on the same day of the seeding. In both cases, the incubation time after the treatment with the drug was 72 h. After 68 h incubation, the AlamarBlue was added (20 µL in each well) and the incubation time was completed. After 72 h, the change in color was measured by spectrofluorimetry at an excitation wavelength of 544 nm and emission wavelength of 590 nm. AlamarBlue is a cell viability indicator containing a compound called resazurin. AlamarBlue is water soluble, stable in culture media, non-toxic, and is permeable through the cell membrane. When resazurin (blue) enters the live cells, it is reduced to the fluorescent molecule resorufin (pink).

[5] = tested on: SR (Leukemia); experiment: NCI60 screen (SRB); format: cell-based, human; details: 48 h; for growth percent: one dose 10 µM
[6] = biological target: CYP1A1 (Homo sapiens, UniProt P04798); experiment: Cytochrome P450 assay (DBF fluorescence)
CYP1A1, sequence (P04798 whole entry): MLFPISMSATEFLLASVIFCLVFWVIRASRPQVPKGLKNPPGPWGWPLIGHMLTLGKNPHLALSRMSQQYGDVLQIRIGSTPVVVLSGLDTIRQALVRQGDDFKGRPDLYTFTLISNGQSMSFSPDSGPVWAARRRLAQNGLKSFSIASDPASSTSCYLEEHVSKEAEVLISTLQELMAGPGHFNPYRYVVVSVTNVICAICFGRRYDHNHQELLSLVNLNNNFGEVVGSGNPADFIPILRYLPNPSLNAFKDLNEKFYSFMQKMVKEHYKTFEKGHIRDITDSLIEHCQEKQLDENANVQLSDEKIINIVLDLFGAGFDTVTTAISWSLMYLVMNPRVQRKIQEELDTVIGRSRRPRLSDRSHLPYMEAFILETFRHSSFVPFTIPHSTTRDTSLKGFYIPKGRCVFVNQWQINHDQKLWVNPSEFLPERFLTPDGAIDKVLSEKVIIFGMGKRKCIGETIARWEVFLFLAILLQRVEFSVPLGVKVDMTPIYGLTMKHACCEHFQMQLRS

[7] = tested on: MCF-10A human mammary epithelial cells; experiment: Cytotoxicity in MCF-10A cells (alamarBlue); format: cell-based; details: 10 μM, 24 h
Method: as §1, §2, §3

[8] = 1 μM, 24 h, read-out: cell viability

Row | SMILES | growth percent [1] [%] | growth percent [2] [%] | growth percent ([3]; 48 h) [%] | viability at 72 h, 0.4 µM ([4]; 72 h) [%] | viability at 24 h, 1 µM [4, 8] [%] | viability at 48 h, 1 µM ([4]; 1 μM, read-out: viable cells) [%] | viability at 24 h, 10 µM ([4]; 10 μM, 24 h, read-out: viable cells) [%] | viability at 48 h, 10 µM ([4]; 10 μM, read-out: viable cells) [%] | growth percent [5] [%] | IC50 [6] [nM] | GI50 ([1]; Homo sapiens, five-dose) [nM] | IC50 ([2]; Homo sapiens, five-dose, read-out: IC50 (cell marked * in GI50 column)) [nM] | GI50 ([3]; Homo sapiens, NCI-H460, 48 h) [nM] | GI50 ([3]; 48 h) [nM] | viability at 72 h, 0.5 µM ([4]; 0.5 μM, 72 h, read-out: cell viability) [%] | viability at 72 h, 1 µM ([4]; 1 μM, 72 h, read-out: cell viability) [%] | viability at 72 h, 10 µM ([4]; 10 μM, 72 h, read-out: cell viability) [%] | cell death [7] | GI50 ([5]; Homo sapiens, five-dose) [nM]
1 | COc1ccc(/C=C/C(c2cc(OC)c(OC)c(OC)c2)n2cncn2)cc1 (stereo not drawn) [Compound 22a, (E)-1-(3-(4-Methoxyphenyl)-1-(3,4,5-trimethoxyphenyl)allyl)-1H-1,2,4-triazole] | 30.72 | 61.24 | 22.14 | > 80 | 100 | > 80 | 78 | ~57 | 18.93 | – | – | – | – | – | – | – | – | – | –
2 | COc1ccc(/C=C/C(c2cc(OC)c(OC)c(OC)c2)n2cncn2)cc1O (stereo not drawn) [Compound 22b, (E)-5-(3-(1H-1,2,4-Triazol-1-yl)-3-(3,4,5-trimethoxyphenyl)prop-1-en-1-yl)-2-methoxyphenol] | 60.64 | 54.65 | 13.26 | > 80 | 100 | > 80 | – | ~30 | 5.67 | > 53000 | 3660 | > 100000 | 42 | 42.3 | 80 | 55 | 24 | approximately 50% | 24.8
3 | COc1cc(/C=C/C(/C=C/c2cc(OC)c(OC)c(OC)c2)n2ccnc2)cc(OC)c1OC [Compound 30, 1-((1E,4E)-1,5-bis(3,4,5-trimethoxyphenyl)penta-1,4-dien-3-yl)-1H-imidazole] | 99.42 | 96.68 | 93.96 | – | – | – | – | – | 31.50 | – | – | – | – | – | – | – | – | – | –
4 | COc1ccc(C2CC(n3ccnc3)c3cc(OC)c(OC)c(OC)c32)cc1O (stereo not drawn) [Compound 27a, 5-(3-(1H-Imidazol-1-yl)-5,6,7-trimethoxy-2,3-dihydro-1H-inden-1-yl)-2-methoxyphenol] | 106.99 | 101.51 | 78.74 | – | – | – | – | – | 35.42 | – | – | – | – | – | – | – | – | – | –
5 | COc1ccc(/C=C/C(c2cc(OC)c(OC)c(OC)c2)n2ccnc2)cc1O (stereo not drawn) [Compound 23b, (E)-5-(3-(1H-Imidazol-1-yl)-3-(3,4,5-trimethoxyphenyl)prop-1-en-1-yl)-2-methoxyphenol] | 89.81 | 45.84 | 16.55 | – | – | – | – | – | 6.18 | – | – | – | – | – | – | – | – | – | –
